This note sets out measurements from ChEMBL document CHEMBL4325854, “Synthetic small molecules as anti-biofilm agents in the struggle against antibiotic resistance” (Eur J Med Chem, 2019).

SMILES strings stand for the structures. Positions of bridges follow the written chain, without caps; N, C: chain ends. Residues, ends and D or L forms follow the SMILES beside them. Groups on a side chain read outwards from the residue. Chains are numbered I, II in the order given. *: point of attachment. Acetyl(C-α-L-Fucp) = C[C@@H]1O[C@@H](CC(=O)*)[C@@H](O)[C@H](O)[C@@H]1O

For assay [1], the system named is Staphylococcus epidermidis. Briefly: Antibiofilm activity against Staphylococcus epidermidis. It is filed as functional.
In a further assay the test system is Enterococcus faecium. Nature of the assay: Antibiofilm activity against Enterococcus faecium. It is filed as functional.
Assay [2] deals with T1, Fucose-binding lectin PA-IIL (Pseudomonas aeruginosa (strain ATCC 15692 / DSM 22644 / CIP 104116 / JCM14847 / LMG 12228 / 1C / PRS 101 / PAO1), UniProt Q9HYN5). Nature of the assay: Inhibition of N-(Fluorescein-5-yl)-N'-(alpha-L-fucopyranosyl ethylen)thiocarbamide binding to Pseudomonas aeruginosa PA14 LecB after 22 to 24 hrs by fluorescence polarization assay. (In general: In fluorescence polarisation assays a small probe gives low polarisation when free and higher when bound to something large.)
Target sequence in this assay (Q9HYN5 1-115): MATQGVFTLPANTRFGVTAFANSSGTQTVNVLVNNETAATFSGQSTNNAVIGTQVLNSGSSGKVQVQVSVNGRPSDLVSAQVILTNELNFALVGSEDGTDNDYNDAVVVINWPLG

Assay [3] has as its system Staphylococcus aureus. Nature of the assay: Antibiofilm activity against Staphylococcus aureus ATCC 29213 at 6.2 ug/ml relative to control. It is filed as functional.
Assay [4] has as its system Staphylococcus aureus. Briefly: Antibiofilm activity against Staphylococcus aureus ATCC 29213 at 25 ug/ml relative to control. Format: functional.
In assay [5] the test system is Staphylococcus epidermidis. Briefly: Antibiofilm activity against Staphylococcus epidermidis at 25 ug/ml relative to control. It is filed as functional.
Another assay concerns Pseudomonas aeruginosa. Briefly: Antibiofilm activity against Pseudomonas aeruginosa. Format: functional, organism-based.
Assay [6] concerns the target T1, Fucose-binding lectin PA-IIL. Briefly: Inhibition of biotinylated polymeric fucose binding to Pseudomonas aeruginosa LecB expressed in Escherichia coli BL21(DE3) preincubated for 1 hr followed by biotinylated polymeric fucose addition and measured after 1 hr.
Target sequence in this assay (Q9HYN5 whole entry): as the sequence (Q9HYN5 1-115) above
For assay [7], the system named is Staphylococcus aureus. Briefly: Antibiofilm activity against methicillin-resistant Staphylococcus aureus BAA-1707. It is filed as functional.
Another assay deals with Enterococcus. Nature of the assay: Antibiofilm activity against vancomycin-resistant Enterococcus. Format: functional.
Assay [8] deals with Staphylococcus aureus. Nature of the assay: Antibiofilm activity against methicillin-resistant Staphylococcus aureus isolate 2. It is filed as functional.
The test system of assay [9] is Staphylococcus aureus. Nature of the assay: Antibiofilm activity against methicillin-resistant Staphylococcus aureus. It is filed as functional, organism-based.
In a further assay the test system is Enterococcus faecalis. Briefly: Antibiofilm activity against Enterococcus faecalis. It is filed as functional.
The subject of assay [10] is Vibrio cholerae. Nature of the assay: Antibiofilm activity against Vibrio cholerae assessed as inhibition of biofilm dispersion. Format: functional, organism-based.
For assay [11], the system named is Vibrio cholerae. Briefly: Antibiofilm activity against Vibrio cholerae. Format: functional, organism-based.
The subject of assay [12] is Staphylococcus aureus. Nature of the assay: Antibiofilm activity against methicillin-resistant Staphylococcus aureus ATCC BAA-44. Format: functional, organism-based.
Assay [13] concerns Staphylococcus aureus. Briefly: Antibiofilm activity against methicillin-resistant Staphylococcus aureus ATCC BAA-44 preformed biofilms assessed as reduction in biofilm dispersion. Format: functional, organism-based.
Assay [14] deals with Staphylococcus aureus. Briefly: Antibiofilm activity against Staphylococcus aureus ATCC 6538. It is filed as functional, organism-based.
In another assay the target is T2, Sortase A (Staphylococcus aureus, UniProt Q9S446).
T2 sequence (Q9S446 whole entry): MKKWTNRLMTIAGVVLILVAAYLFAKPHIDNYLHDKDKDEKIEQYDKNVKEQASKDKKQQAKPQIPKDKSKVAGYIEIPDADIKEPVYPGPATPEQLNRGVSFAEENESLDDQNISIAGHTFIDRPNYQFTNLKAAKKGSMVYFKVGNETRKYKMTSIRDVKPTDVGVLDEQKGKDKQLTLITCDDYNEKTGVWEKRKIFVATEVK
Briefly: Inhibition of Staphylococcus aureus SrtA.

By IC50 is commonly meant the concentration that inhibits the measured activity by half.

As for `CCc1cccc2nc3c(O)c(Br)cc(Br)c3nc12`, the results for the MBEC (in [1]; in the assay on Enterococcus faecium) were 2.35 µM and 0.59 µM, respectively.

In assay [2], `Cc1cc(C)c(S(=O)(=O)NC[C@H]2O[C@@H](C)[C@@H](O)[C@@H](O)[C@@H]2O)c(C)c1` returned an IC50 of 0.34 µM.

In the case of `Cc1nn(C)c([N-]C(=O)c2ccc([N+](=O)[O-])cc2)c1[N+]#N`, the Activity is given as 86.5% in the assay with Staphylococcus aureus [3], 69 - 96% with Staphylococcus aureus [4] and 69 - 96% in assay [5].

Take `CC[C@H](C)[C@H](NC(=O)[C@H](Cc1cnc[nH]1)NC(=O)[C@H](CCCCNC(=O)[C@@H](NC(=O)[C@H](CCCCN)NC(=O)[C@H](Cc1ccccc1)NC(=O)[C@H](CCCCNC(=O)[C@H](CC(C)C)NC(=O)[C@@H]1CCCN1C(=O)[C@H](CCCCN)NC(=O)C[C@@H]1O[C@@H](C)[C@@H](O)[C@@H](O)[C@@H]1O)NC(=O)[C@H](CC(C)C)NC(=O)[C@@H]1CCCN1C(=O)[C@H](CCCCN)NC(=O)C[C@@H]1O[C@@H](C)[C@@H](O)[C@@H](O)[C@@H]1O)[C@@H](C)CC)NC(=O)[C@@H](NC(=O)[C@H](CCCCN)NC(=O)[C@H](Cc1ccccc1)NC(=O)[C@H](CCCCNC(=O)[C@H](CC(C)C)NC(=O)[C@@H]1CCCN1C(=O)[C@H](CCCCN)NC(=O)C[C@@H]1O[C@@H](C)[C@@H](O)[C@@H](O)[C@@H]1O)NC(=O)[C@H](CC(C)C)NC(=O)[C@@H]1CCCN1C(=O)[C@H](CCCCN)NC(=O)C[C@@H]1O[C@@H](C)[C@@H](O)[C@@H](O)[C@@H]1O)[C@@H](C)CC)C(N)=O` (I: {Acetyl(C-α-L-Fucp)}-KPLK([Leu-Pro-Lys-Acetyl(C-α-L-Fucp)])FKIKHI-NH2 / II: {Acetyl(C-α-L-Fucp)}-KPLK([Leu-Pro-Lys-Acetyl(C-α-L-Fucp)])FKI; amide I:8-II:C): the IC50 in the assay on Pseudomonas aeruginosa worked out at 10 µM; in assay [6] it was 0.14 µM.

For the molecule `Oc1c(Br)cc(Br)c2ccc(CNc3ccc(F)cc3)nc12`, the MBEC in assay [1] was 5.9 µM; in the assay with Staphylococcus aureus [7], 7.8 µM; in the assay on Enterococcus it was 1 µM; in the assay with Staphylococcus aureus [8] it was 93.8 µM.

Regarding `CCCCCCCCCCCC[N+](C)(C)CCNCC[N+](C)(C)CCCCCCCCCCCC`, the results for the MBEC in the assay with Staphylococcus aureus [9] and in the assay on Enterococcus faecalis were 50 µM and 25 µM, respectively.

For `O[C@H](c1cc(-c2cccc(S(F)(F)(F)(F)F)c2)nc2ccccc12)[C@@H]1CCCN1`, the DC50 with Vibrio cholerae [10] came to 7.4 µM. This molecule also returned an IC50 in the assay with Vibrio cholerae [11] of 4.4 µM.

Turning to `CCCCC(Cl)(Cl)C1NC(=O)/C(=C/c2ccc(C(F)(F)F)cc2)O1` (stereo not given), the IC50 was found to be 0.78 µM with Staphylococcus aureus [12] and 4.7 µM with Staphylococcus aureus [13].

For `CCOC(=O)/C(=N/Nc1c(F)cccc1F)C(=O)c1cc(C)nn1CC`, the values for the concentration for half-maximal inhibition (IC50) in the assay on Staphylococcus aureus [14] and at Sortase A were 0.9 µM and 75 µM, respectively.
